Results on two compounds are retold here after BindingDB's records for doi:10.1016/j.chembiol.2005.07.009 (University of Dundee, 2005).

For orientation: IC50 means the concentration that gives 50% inhibition. Lower therefore signals higher potency. One may read the Kd as the free concentration of one partner at which half of the binding sites on the other are occupied at equilibrium, for simple one-to-one binding. A high value points to lower affinity.

Test [1] concerns the target cAMP-specific 3',5'-cyclic phosphodiesterase 4A (Homo sapiens, UniProt P27815). Put plainly: PDE 4A Assay. To be noted: pH 7.5; 30 °C. The protocol: Phosphodiesterase 4A (PDE4A) was assayed using an Sf9-expressed GST-fusion, and activity was monitored by hydrolysis of [3H]cAMP to [3H]AMP using the PDE-SPA kit from Amersham Pharmacia Biotech.
In test [2] the target is Endochitinase B1 [A217G] (Aspergillus fumigatus, UniProt Q873X9, A217G). Put plainly: Enzyme Inhibition Assay.
Test [3] has as its target Endochitinase B1 [D175A] (Aspergillus fumigatus, UniProt Q873X9, D175A). Put plainly: Enzyme Inhibition Assay.
In test [4] the target is Endochitinase B1 [D246A] (Aspergillus fumigatus, UniProt Q873X9, D246A). The test is described as follows: Enzyme Inhibition Assay.
The target in test [5] is Endochitinase B1 [E177A] (Aspergillus fumigatus, UniProt Q873X9, E177A). The test is described as follows: Enzyme Inhibition Assay.
The target in test [6] is Endochitinase B1 [E322A] (Aspergillus fumigatus, UniProt Q873X9, E322A). The test is described as follows: Enzyme Inhibition Assay.
For test [7], the target named is Endochitinase B1 [M243A] (Aspergillus fumigatus, UniProt Q873X9, M243A). The test is described as follows: Enzyme Inhibition Assay.
Test [8] has as its target Endochitinase B1 [R301K] (Aspergillus fumigatus, UniProt Q873X9, R301K). The test is described as follows: Enzyme Inhibition Assay.
Test [9] concerns the target Endochitinase B1 [T138A] (Aspergillus fumigatus, UniProt Q873X9, T138A). The test is described as follows: Enzyme Inhibition Assay.
Test [10] concerns the target Endochitinase B1 [Y245F] (Aspergillus fumigatus, UniProt Q873X9, Y245F). The test is described as follows: Enzyme Inhibition Assay.

Chain of cAMP-specific 3',5'-cyclic phosphodiesterase 4A (P27815 whole entry, the tested form may be a part): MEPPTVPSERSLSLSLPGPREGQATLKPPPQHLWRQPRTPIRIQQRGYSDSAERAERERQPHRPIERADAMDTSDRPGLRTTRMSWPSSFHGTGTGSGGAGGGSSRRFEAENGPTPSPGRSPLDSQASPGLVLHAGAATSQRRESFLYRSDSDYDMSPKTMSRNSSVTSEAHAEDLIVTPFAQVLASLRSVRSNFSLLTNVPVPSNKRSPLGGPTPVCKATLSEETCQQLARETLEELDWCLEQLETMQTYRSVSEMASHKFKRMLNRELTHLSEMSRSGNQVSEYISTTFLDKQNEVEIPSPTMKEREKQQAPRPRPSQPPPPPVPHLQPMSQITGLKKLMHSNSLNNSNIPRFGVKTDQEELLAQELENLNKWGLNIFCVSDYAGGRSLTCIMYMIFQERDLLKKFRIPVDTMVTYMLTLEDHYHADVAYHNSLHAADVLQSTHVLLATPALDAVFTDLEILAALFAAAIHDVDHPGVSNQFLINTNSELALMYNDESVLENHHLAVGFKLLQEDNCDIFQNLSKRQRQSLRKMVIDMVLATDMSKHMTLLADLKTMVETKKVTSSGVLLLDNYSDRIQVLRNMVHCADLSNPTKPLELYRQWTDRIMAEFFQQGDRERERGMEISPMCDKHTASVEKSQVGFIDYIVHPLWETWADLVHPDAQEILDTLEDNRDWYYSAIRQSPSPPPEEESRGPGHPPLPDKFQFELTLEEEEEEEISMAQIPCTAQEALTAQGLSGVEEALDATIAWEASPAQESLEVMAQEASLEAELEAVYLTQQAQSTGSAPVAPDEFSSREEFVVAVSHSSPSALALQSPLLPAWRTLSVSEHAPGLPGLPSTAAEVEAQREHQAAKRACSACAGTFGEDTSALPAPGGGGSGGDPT

With `Cn1c(=O)c2c(ncn2C)n(C)c1=O`, inhibition in [1] was half-maximal at 747 µM (IC50).

Take `CC(=O)CCCCn1c(=O)c2c(ncn2C)n(C)c1=O` [1-(5-Oxohexyl)theobromine (pentoxifylline)]: the Kd in test [2] stood at 77 µM; in [3], 100 µM; in [4], 62 µM; in [5] it was 36 µM; in [6] it was 45 µM; in test [7] it was 18 µM. The Kd in [8] is 17 µM; in [9], 65 µM; in test [10], 64 µM.
